Test results taken from US7659277B2, “Ubiquitin ligase inhibitors and methods related thereto” (Proteologies, Ltd., priority 2003, dated 2010).
Read-outs that look alike come from different tables or passages of the source.

How the values were obtained:
Hmdm2 = Hmdm2 (Homo sapiens, UniProt Q00987); assay: Selectivity (% A in 1 μM), ubiquitin ligase activity of Hmdm2; type: biochemical; conditions: read-out: Selectivity (% A* in 1 μM) Hmdm2
POSH = target: T1, POSH (Homo sapiens, UniProt Q7Z6J0); assay: IC50 assay procedure: GST-POSH auto-ubiquitination, homogeneous time-resolved fluorescence (Ub-cryptate / anti-GST XL665); type: biochemical; conditions: ubiquitin ligase activity of POSH; GST-POSH 33 nM, 30 min preincubation
T1 construct: GST-POSH lot NB81/p.118 3.6 mg/ml; fused on or other part: GST tag, used for detection with anti-GST XL665
T1 sequence (Q7Z6J0 1-269 limits assumed): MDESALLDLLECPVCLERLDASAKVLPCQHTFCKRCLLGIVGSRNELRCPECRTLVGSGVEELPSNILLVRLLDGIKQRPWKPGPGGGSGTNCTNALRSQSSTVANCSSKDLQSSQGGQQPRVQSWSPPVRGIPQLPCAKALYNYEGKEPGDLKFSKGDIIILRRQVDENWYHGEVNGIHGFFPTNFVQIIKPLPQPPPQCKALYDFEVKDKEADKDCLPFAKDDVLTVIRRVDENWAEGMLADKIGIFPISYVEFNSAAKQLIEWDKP
Excerpt: In certain preferred embodiments, agents that inhibit (or promote) the ubiquitin ligase activity of a ubiquitin ligase, such as POSH, may be identified using a homogenous time resolved fluorescence assay. Such an assay may employ a GST fused to the RING subunit of a ubiquitin ligase (e.g. POSH). Two flurophore-conjugated detection reagents are also used: anti-GSTXL665 and europium cryptate labeled ubiqutin. The ubiqutination of the ubiquitin ligase by ubiqutin cryptate and binding of the anti-GST tagged XL665 brings the fluorophores into close proximity allowing FRET reaction to occur. Accordingly, FRET serves as a measurement of ubiquitination of the ubiquitin ligase. An enzymatic system may be set up to provide activated ubiquitin, e.g., by providing ubiquitin, an E1 and an E2. Compounds that will not allow the FRET reaction are considered to be inhibitors.
Step 3: establish IC 50 value measurements.
Experimental Protocols: 1. HTS Screening Assay Procedure • Microplates 10109D to 10114D compounds at 1 mM. • (Controls in column 1). • All compounds were perchase from ChemBridge corporation: ChemBridge corporation 16981 Via Tazon, Suite G San Diego, Calif. 92127 a. Microplates Labeling • Put labels to 6 PS U-bottom clear microplate. • Put labels to 18 black microplates (triplicats). b. Microplates Preparation • Put 100 μl GST-POSH at 33 nM in wells of the clear PS U-bottom microplates (exept wells A1-D1). • Negative control: place 100 μl dH2O in wells A1-D1. • (Positive control: place 100 μl GST-POSH at 33 nM in wells E1-H1). • Put 8 μl enzymes solution ×4 to black microplates (column 1 to 11). c. Incubation of E3 with Compounds • Transfer 5 μl of compounds (at 1 mM) to the microplates containing 100 μl GST-POSH. • Add 5 μl of DMSO to controls column 1. • Incubation 30 minutes at RT. d. Enzymatic (Ubiquitination) and Final Steps • Distribution of (triplicate) 3×23 μl incubated compounds into 3 black microplates containing enzymatic solution (on splitting apparatus). • Incubation 30 minutes at 37° C. • Addition of 8 μl EDTA 0.5 M. • Incubation 15 (at least) minutes at RT. • Addition of 30 μl GST XL 665 in reconstitution buffer. • Incubation 45 (at least) minutes at RT. • Reading fluorescence. • Record results in computer. • Put sealing foil back on original and diluted microplates and keep at −70° C. • Always the plates must be closed with lids during each step. 2. […] Microplates Labeling • Put labels to 4 clear PP clear microplate (18.2 μM, 9.1 uM, 1.82 uM, 910 nM,). • Put labels to 5 clear PS U-bottom clear microplate 4.44 μM, 909, 444, 91 and 44 nM) • Put labels to 15 black microplates (triplicates). f. Original Microplate Dilutions • Put DMSO 40 μl to (18.2 μM, 1.82 uM plates) and 20 ul to (9.1 uM, 910 nM plates. • Mix by pipetation the original microplate (3× up and down 45 μl). • Transfer 10 μl of compounds from the original microplate (at 91 μM) to the next microplate (=18.2 μM) on splitting apparatus. • Mix by pipetation the 18.2 uM microplate (3× up and down 45 μl). • Transfer 20 μl of compounds from the 18.2 uM microplate to the next microplate (=9.1 μM) on splitting apparatus. • Mix by pipetation the 9.1 uM microplate (3× up and down 45 μl). • Transfer 10 μl of compounds from the 9.1 uM microplate to the next microplate (=1.82 μM) on splitting apparatus. • Mix by pipetation the 1.82 uM microplate (3× up and down 45 μl). • Transfer 20 μl of compounds from the 1.82 uM microplate to the next microplate (=910 nM) on splitting apparatus • Mix by pipetation. g. Microplates Preparation • Put 123 μl GST-POSH at 33 nM in wells of the 5 clear PS U-bottom clear microplates. • Positive control: place 123 μl GST-POSH at 33 nM in well A12-h12 13 μl DMSO. • Negative control: place 123 μl dH2O in well B1 and 13 μl DMSO. • Put 8 μl enzymes solution ×4 to 15 black microplates. • Controls: put 8 μl enzymes solution ×4 to wells A1 to F1. h. […]

[1] = % activity at 1 μM compound, control is related to 100% activity, HTS protocol

Hmdm2, sequence (Q00987 whole entry): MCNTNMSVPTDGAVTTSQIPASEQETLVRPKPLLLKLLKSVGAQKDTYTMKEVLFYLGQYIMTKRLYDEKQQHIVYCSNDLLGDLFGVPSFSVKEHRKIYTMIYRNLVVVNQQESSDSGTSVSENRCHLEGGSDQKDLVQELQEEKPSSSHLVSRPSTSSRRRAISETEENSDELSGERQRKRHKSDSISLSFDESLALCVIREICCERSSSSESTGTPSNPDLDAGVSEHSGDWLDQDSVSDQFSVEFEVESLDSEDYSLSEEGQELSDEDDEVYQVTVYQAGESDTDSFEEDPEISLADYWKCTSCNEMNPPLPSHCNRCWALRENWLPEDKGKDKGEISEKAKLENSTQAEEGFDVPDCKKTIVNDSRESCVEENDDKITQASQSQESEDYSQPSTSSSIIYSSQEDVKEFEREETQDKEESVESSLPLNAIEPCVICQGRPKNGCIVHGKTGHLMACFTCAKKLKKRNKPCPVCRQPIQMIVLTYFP

O=C1/C(=C\c2cccc([N+](=O)[O-])c2)Sc2ccccc21 [Compound 52]
remaining activity at 1 µM (Hmdm2; [1]): 107%
IC50 (POSH): 1300 nM

O=C1NC(=O)C(=Cc2ccc(-c3cc(Cl)ccc3Cl)o2)C(=O)N1 [Compound 1]
remaining activity at 1 µM (Hmdm2): 105%
IC50 (POSH): 200 nM

COc1ccccc1N1C(=O)NC(=O)/C(=C\C=C\c2ccccc2)C1=O [Compound 10]
remaining activity at 1 µM (Hmdm2; [1]): 116%
IC50 (POSH): 1000 nM

Cc1ccc(/N=C/c2cccc(O)c2O)cc1C [Compound 56]
remaining activity at 1 µM (Hmdm2): 73%
IC50 (POSH): 300 nM

COc1ccc(CC(C)NCc2ccccc2Cl)cc1 (centres unmarked) [Compound 107]
remaining activity at 1 µM (Hmdm2; [1]): 113%
IC50 (POSH): 1000 nM

COc1cc(C=C2C(=O)N(C)C(=S)N(C)C2=O)ccc1O [Compound 9]
remaining activity at 1 µM (Hmdm2; [1]): 103%
IC50 (POSH): 10000 nM

COc1ccccc1/C=C1\N=C(c2ccccc2Cl)OC1=O [Compound 49]
remaining activity at 1 µM (Hmdm2; [1]): 115%
IC50 (POSH): 1000 nM

C=CCN1C(=O)/C(=C/c2c3ccccc3cc3ccccc23)SC1=S [Compound 109]
remaining activity at 1 µM (Hmdm2): 106%
IC50 (POSH): 500 nM

O=C1C=CC(=O)N1c1cc(Cl)cc(Cl)c1 [Compound 23]
remaining activity at 1 µM (Hmdm2; [1]): 107%
IC50 (POSH): 200 nM

Oc1c(Br)cc(Br)cc1/C=N/c1cccc2nsnc12 [Compound 112]
remaining activity at 1 µM (Hmdm2; [1]): 113%
IC50 (POSH): 700 nM

Cc1ccc2nc(-c3ccc(/N=C/c4ccc([N+](=O)[O-])s4)cc3)sc2c1 [Compound 72]
remaining activity at 1 µM (Hmdm2; [1]): 124%
IC50 (POSH): 800 nM

COc1ccc(N2C(=O)NC(=O)/C(=C\c3ccc(Cl)cc3)C2=O)cc1 [Compound 7]
remaining activity at 1 µM (Hmdm2; [1]): 101%
IC50 (POSH): 1000 nM

O=C1C=CC(=O)N1c1ccc(Cl)cc1 [Compound 19]
remaining activity at 1 µM (Hmdm2): 100%
IC50 (POSH): 700 nM

O=[N+]([O-])c1ccc2c(c1)Cc1cc(/N=C/c3ccc(Br)cc3)ccc1-2 [Compound 67]
remaining activity at 1 µM (Hmdm2; [1]): 104%
IC50 (POSH): 1000 nM

N/N=C\c1ccc(-c2cccs2)s1 [Compound 37]
remaining activity at 1 µM (Hmdm2; [1]): 107%
IC50 (POSH): 1000 nM

Oc1c(Br)cc(Br)cc1/C=N/c1ccc(Br)cn1 [Compound 61]
remaining activity at 1 µM (Hmdm2; [1]): 131%
IC50 (POSH): 700 nM

O=C1NC(=O)N(c2ccc(Br)cc2)C(=O)/C1=C/c1ccc(O)cc1 [Compound 5]
remaining activity at 1 µM (Hmdm2; [1]): 61%
IC50 (POSH): 300 nM

O=C(C(Cl)Cl)N1CCN(c2ccc([N+](=O)[O-])cc2)CC1 [Compound 79]
remaining activity at 1 µM (Hmdm2; [1]): 94%
IC50 (POSH): 900 nM

COc1cc(N/C=C2/C(=O)NC(=S)N(c3ccc(F)cc3)C2=O)cc(OC)c1 [Compound 17]
remaining activity at 1 µM (Hmdm2; [1]): 106%
IC50 (POSH): 700 nM

COc1ccc(N2C(=O)NC(=O)/C(=C\C=C\c3ccccc3)C2=O)cc1 [Compound 8]
remaining activity at 1 µM (Hmdm2): 78%
IC50 (POSH): 500 nM

CCCCCCOc1ccc(C=C2C(=O)NC(=S)NC2=O)cc1 [Compound 15]
remaining activity at 1 µM (Hmdm2): 90%
IC50 (POSH): 500 nM

O=c1/c(=C/c2ccc(N3CCOCC3)cc2)sc2nc3ccccc3n12 [Compound 32]
remaining activity at 1 µM (Hmdm2): 141%
IC50 (POSH): 500 nM

O=[N+]([O-])c1ccc(-c2ccc(/N=C/c3c(O)ccc4ccccc34)cc2)cc1 [Compound 60]
remaining activity at 1 µM (Hmdm2; [1]): 90%
IC50 (POSH): 1000 nM

COc1cc(N/C=C2/C(=O)NC(=S)N(c3cccc(C)c3)C2=O)cc(OC)c1 [Compound 16]
remaining activity at 1 µM (Hmdm2; [1]): 86%
IC50 (POSH): 1000 nM

O=C1\C(=C/C=C/C=C/Nc2ccccc2)SC(=S)N1c1ccccc1 [Compound 24]
remaining activity at 1 µM (Hmdm2; [1]): 69%
IC50 (POSH): 1000 nM

COc1ccc(/C=N/c2ccc(Nc3ccccc3)cc2)c2ccccc12 [Compound 55]
remaining activity at 1 µM (Hmdm2): 58%
IC50 (POSH): 500 nM

Oc1c(Br)cc(Cl)cc1/C=N/c1ccccc1Br [Compound 58]
remaining activity at 1 µM (Hmdm2; [1]): 102%
IC50 (POSH): 800 nM

CC(=C\c1ccccc1)/C=C1/SC(=N)NC1=O [Compound 31]
remaining activity at 1 µM (Hmdm2; [1]): 102%
IC50 (POSH): 900 nM

COc1ccc(NC(=O)c2cc3cccc(N)c3cc2O)cc1 [Compound 114]
remaining activity at 1 µM (Hmdm2): 85%
IC50 (POSH): 300 nM

COc1ccc(/C=C2\C(=O)NC(=S)N(c3ccccc3)C2=O)cc1 [Compound 11]
remaining activity at 1 µM (Hmdm2; [1]): 95%
IC50 (POSH): 10000 nM

Oc1ccc(/N=C/c2cccs2)cc1-c1nc2ccccc2s1 [Compound 71]
remaining activity at 1 µM (Hmdm2; [1]): 78%
IC50 (POSH): 800 nM

CC(C)(C)c1ccc(O)c(/N=C/C=C/c2cccc([N+](=O)[O-])c2)c1 [Compound 59]
remaining activity at 1 µM (Hmdm2): 112%
IC50 (POSH): 500 nM

O=c1nc(C(F)(F)F)cc(/C=C/c2ccc(-c3ccc(Br)cc3)o2)[nH]1 [Compound 39]
remaining activity at 1 µM (Hmdm2; [1]): 108%
IC50 (POSH): 1000 nM

O=C1C=CC(=O)N1c1ccccc1Cl [Compound 18]
remaining activity at 1 µM (Hmdm2): 101%
IC50 (POSH): 700 nM
